Measured values published in patent US6086789A, “Medical uses of pyruvates” (Case Western Reserve University, priority 1998, dated 2000).
Each block holds one compound with its values, some of them ahead of it.

Legend:
[1] = system: ketoacidotic diabetic rats; assay: Treatment of ketoacidotic diabetic BB rats; type: in vivo
Method: Prediabetic male BB rats were purchased from the University of Massachussetts Breeding Center. They were treated with insulin (PZI 40 U/mL, Anpro Pharmaceutical), mean of 2.1 U for rats weighing between 250-300 g) as soon as they became hyperglycemic. They were used after at least three weeks of clinical stability and steady weight growth. Under general anesthesia, permanent catheters were inserted in a carotid artery and the controlateral external jugular vein. Then, the rats were deprived of insulin for two days. […] The rats were then treated with one of four protocols: […]

[2] = Therapeutic pyruvate concentration in vivo, infusion of rats; design: species or system rat
Method: Therapeutic pyruvate concentration in vivo with DPAG
After preparing pure DPAG, experiments were performed to test whether it could be used to impose a therapeutic concentration of 1 mM pyruvate in arterial blood. Overnight-fasted rats, anesthetized with halothane, were infused in the jugular vein with DPAG at 90 μmol·min^-1 ·kg^-1 for 90 min. This rate corresponds to about 120% of the rats' caloric requirement. Five blood samples (70 μl) were taken from the carotid artery between 60 and 90 min. The arterial concentrations of pyruvate, lactate, and glycerol were clamped at 1.0, 2.5, and 0.8 mM, respectively. Corresponding portal vein concentrations at 90 min were 0.6, 2.5, and 1.0 mM, respectively. FIGS. 8 and 9 show blood concentrations of metabolites in rats infused with DPAG (panel A) and in control rats infused with saline (panel B). Control rats show normal arterial concentrations of pyruvate (0.05 mM) and lactate (0.3 to 0.6 mM; normal values for lactate are up to 1.5 mM). In rats infused with DPAG, the arterial concentrations of pyruvate and lactate were clamped at 1.0, and 2.5 mM, respectively. Corresponding portal vein concentrations at 90 min were 0.6 and 2.5 mM, respectively. Arterial glucose remained at 5-6 mM. […] Thus, DPAG can be safely used to set up the 1 mM target concentration of pyruvate expected to be beneficial for the treatment of reperfusion injury. […] Third, during peripheral administration of DPAG at 90 μmol·min^-1 ·kg^-1, portal pyruvate concentration was about 2/3 that which yielded a 3 to 6-fold increase in ethanol uptake by perfused rat livers. A portal pyruvate concentration of 1 mM could be achieved (i) by increasing the peripheral infusion of DPAG to 120 μmol·min^-1 ·kg^-1, or (ii) by administering DPAG enterally to better target portal vein concentrations.

myocardial infarct = assay: Decrease in myocardial infarct size in swine (LAD occlusion/reperfusion); type: in vivo
Method: Decrease in myocardial infarct size in swine by DPAG.
The animals were anesthetized, instrumented, and subjected to 60 minutes of total occlusion of the distal 2/3 of the left anterior descending coronary artery, followed by 120 min of reperfusion. The area of the infarct was stained with tetrazolium, and infarct size quantitated on 5 mm slices of tissue. Treatment with DPAG was started with the onset of reperfusion (8.0 mg/kgmin for 120 min).

perfused rat livers [3] = assay: Effect of DPAG on ethanol uptake by perfused rat livers; conditions: DPAG raised from zero to 0.5 mM, 2 mM ethanol, read-out: increase of ethanol uptake by the liver
Method: The effect of DPAG on the rate of ethanol uptake by perfused rat livers was also tested. Livers were perfused with non-recirculating buffer containing 4 mM glucose, 2 mM ethanol and variable concentrations of DPAG (0 to 1.5 mM). […] Note that 0.5 mM DPAG corresponds to 1 mM pyruvate after hydrolysis. Thus, to accelerate ethanol oxidation in vivo, the rate of DPAG administration should be adjusted to achieve a 1 mM concentration of free pyruvate in the portal vein. When DPAG was infused to live rats at 90 μmol·min^-1·kg^-1, the portal vein concentration of pyruvate was 0.6 mM. A portal pyruvate concentration of 1 mM could be achieved in vivo (i) by increasing the peripheral infusion of DPAG to 120 μmol·min·^-1 ·kg^-1, or (ii) by administering DPAG enterally to better target portal vein concentrations.

ethanol oxidation = conditions: intragastric gavage, dogs; cited from earlier work
[4] = Stability of PNACE in solution; type: physicochemical
Text: However, the present inventive compound has proven to be readily manufacturable and very effective in the prevention of organ damage associated with reperfusion injury. The compound has been prepared in pure form and in gram amounts. Its formula has been confirmed by elemental analysis and gas chromatography-mass spectrometry. The compound is stable in slightly acidic solutions (pH 4-5). […] The compound has also been synthesized labeled with three deuterium ^2 H atoms on the N-acetyl moiety. This deuterated compound is used as an internal standard for the assay of the compound by isotope dilution gas chromatography-mass spectrometry.

preserved rat livers = assay: Metabolic integrity of preserved rat livers upon reperfusion
Method: Improved function of preserved rat livers
The first group of livers (n=7, control group) was not preserved, but was perfused at 37° C. for 45 minutes. The second group of livers (n=8, preserved group) was flushed with ice-cold University of Wisconsin (UW) preservation solution and stored for 24 hours in ice-cold UW solution. Next, the livers were reperfused at 37° C. with non-recirculating KRB buffer containing 5 mM glucose. The third group of livers (n=8, preserved+PNACE group) was treated as the second group except that 20 μM PNACE was added to the UW preservation solution and to the reperfusion KRB buffer. During the last 45 min of (re)perfusion, the function of the three groups of livers was assessed by (i) the release of three cellular enzymes, i.e. lactate dehydrogenase, aspartate aminotransferase, and alanine aminotransferase, (ii) oxygen consumption, and (iii) the production of ketone bodies, ie β-hydroxybutyrate+acetoacetate, after addition of 1 mM octanoate to the perfusate.
Effect of PNACE on metabolic integrity of preserved rat livers upon reperfusion

isolated rabbit hearts [5] = assay: Recovery of isolated rabbit hearts following 25 min of warm ischemia; design: species or system New Zealand rabbits; conditions: 20 μM PNACE
Method: In the working mode, which simulates physiological conditions, hearts pump the buffer against a 85 cm hydrostatic pressure in the aorta. The mechanical performance of the hearts was assessed by monitoring heart rate, cardiac output, coronary flow, left ventricular pressure, and dP/dtmax. The latter parameter reflects the capacity of the heart to increase hydrostatic pressure in the left ventricle. Following 30 minutes of equilibration, the hearts were made ischemic for 25 minutes by clamping the aortic and left atrial canulas. Then, the clamps were removed to allow reperfusion with oxygenated KRB buffer containing either no additive (n=7, control group), or 20 μM pyruvate-N-acetyl-cysteine ethyl ester ([…]=7). PNACE was infused via a syringe pump into the inflowing perfusate. In the syringe, PNACE was dissolved in 0.1 mM HCl to prevent hydrolysis of the thioester.

reperfused rat hearts = conditions: cited from earlier work
isolated rabbit hearts [6] = assay: Recovery of isolated rabbit hearts following massive catecholamine injury; conditions: 50 μM isoproterenol, after 10 minutes
Method: Recovery of isolated rabbit hearts following massive catecholamine injury
Rabbit hearts were perfused in the working mode as in the above example. However, after the 30 minutes of equilibration, 50 μM isoproterenol was added to the inflowing perfusate for 10 min. Isoproterenol is a catecholamine, which, at the dose administered, induces a marked increase in heart rate and cardiac output. After 10 minutes, the mechanical performance of the hearts decreased markedly to the point where cardiac output was almost zero. Then, isoproterenol infusion was stopped, and perfusion was continued for 30 minutes with oxygenated KRB buffer containing either no additive (n=7, control group), or 20 μM PNACE (n=7).

perfused rat livers [7] = assay: Acceleration of ethanol oxidation by components of pyruvate esters in perfused rat livers; conditions: perfused liver
Method: Acceleration of ethanol oxidation
Rat livers were infused with ethanol and the components of the esters of glycerol-and-DHA pyruvate to represent the conditions that will occur after ester hydrolysis. […] After 10 min baseline, the influent perfusate was enriched with various equimolar concentrations of the components of the esters, ie DHA+Na-pyruvate, or glycerol+Na-pyruvate (up to 2.2 mM). These conditions simulated infusion and hydrolysis of glycerol- or DHA-monopyruvate. The uptakes of ethanol, pyruvate, DHA and glycerol, as well as the productions of lactate and glucose were measured.

[8] = Group III preserved + PNACE (20 μM), 25-30 min.
[9] = preserved reperfused rat livers, 20 μM PNACE

Compound: CC(=O)OCC(COC(=O)C(C)=O)OC(=O)C(C)=O (stereo not shown) [DPAG, dipyruvyl-acetyl-glycerol]
decrease of total KB concentration ([1]; DPAG 90 μmol.min^-1 kg^-1 in saline infusion, in 2 hr): 90% | tolerability of massive doses ([1]; compromised BB rats in diabetic ketoacidosis): well tolerated | Arterial glucose ([2]; DPAG 90 μmol.min^-1.kg^-1): 5 to 6 mM | portal vein concentration of lactate ([2]; DPAG 90 μmol.min^-1.kg^-1, at 90 min): 2.5 mM | acid-base and electrolyte parameters of aortic blood ([2]; DPAG 90 μmol.min^-1.kg^-1, final samples): normal acid-base and electrolyte parameters | arterial concentration of lactate ([2]; DPAG 90 μmol.min^-1.kg^-1 jugular vein, 60-90 min): 2.5 mM | sodium overload and/or acid-base perturbations ([2]; DPAG at 1 mM arterial pyruvate): without sodium overload and/or acid-base perturbations | increases in glucose and lactate concentrations ([2]; DPAG at 120% of the caloric requirement): lack of major increases in glucose and lactate concentrations | infarct size, percent of the area at risk for infarction (myocardial infarct; DPAG 8.0 mg/kgmin for 120 min from onset of reperfusion, n=6, p<0.0005 vs control 40.0±3.6%): 9.1±3.8% | effect on heart rate or ventricular pressure (myocardial infarct; DPAG infusion): did not affect heart rate or ventricular pressure | fold induction at 500 µM (perfused rat livers [3]): 2.5

Compound: O=C(O)O [NH4 HCO3]
rate of ethanol oxidation (ethanol oxidation): increases the rate of ethanol oxidation

stability in slightly acidic solutions ([4]; pH 4-5): stable | hydrolysis to pyruvate and N-acetylcysteine ethyl ester ([4]; pH 7.4): slowly hydrolyzed
Compound: CCOC(=O)[C@H](CSC(=O)C(C)=O)NC(C)=O [PNACE, Pyruvate-N-acetyl-L-cysteine ethyl ester]
Release of lactate dehydrogenase (preserved rat livers; Group III preserved + PNACE (20 μM), 10-14 min.): 4.5 U/L.g | Oxygen consumption (preserved rat livers; [8]): 2.4 µmol/min/g | Release of alanine aminotransferase (preserved rat livers; [8]): 0.33 U/L.g | Release of aspartate amino-transferase (preserved rat livers; [8]): 0.73 U/L.g | Ketone body production (preserved rat livers; Group III preserved + PNACE (20 μM), 25-30 min., 1 mM octanoate): 1.4 µmol/min/g | capacity of the liver to oxidize fatty acids to ketone bodies (preserved rat livers; [9]): restores partially the capacity of the liver to oxidize fatty acids to ketone bodies | initial release of tissue enzymes (preserved rat livers; [9]): markedly decreases the initial release of tissue enzymes | oxygen consumption (in words) (preserved rat livers; [9]): restores oxygen consumption to the level of non-preserved livers | infarct size, percent of the area at risk for infarction (myocardial infarct; PNACE group (n=4)): about 16±4% | duration of functional recovery (isolated rabbit hearts [5]): lasted throughout the 30 minute reperfusion experiment

Compound: CC(=O)N[C@@H](CS)C(=O)O [acetylcysteine]
production of ROS (reperfused rat hearts): decreases the production of ROS

Compound: CC(C)NCC(O)c1ccc(O)c(O)c1 (stereo not shown) [isoproterenol]
cardiac output after isoproterenol (isolated rabbit hearts [6]): almost zero

increase in ethanol uptake by perfused rat livers (perfused rat livers [7]): 3-6 fold
Compound: CC(=O)C(=O)O [pyruvate]

Compound: insulin
decrease of total KB concentration ([1]; 0.75 U insulin intravenously + saline, 2 hr): 30%
